Where two headings read alike, the source gives them in different places.
Experiments:
[1] = tested on: voltage-gated Ca^2+ channels (VGCC); experiment: Calcium channel antagonist assay (cytosolic Ca2+, Fluo-4); format: cell-based; settings: SH-SY5Y cells, K+ 70 mM
Protocol: The cytosolic Ca2+ has been measured in SH-SY5Y cells. SH-SY5Y cells were maintained similarly to what was previously described56. Free cytosolic Ca2+ was measured using the fluorescent Ca2+ indicator Fluo-4/AM (Fluo-4 acetomethoxyester). SH-SY5Y cells were seeded onto 96-well black plates at a density of 10^5 cells per well, achieving confluence after 48 h. Cells were washed with Krebs-Hepes solution (KH, in mM: 144 NaCl, 5.9 KCl, 1.2 MgCl2, 2 CaCl2, 11 D-glucose, 10 HEPES, pH 7.4). Cells were loaded with 10 µM Fluo-4/AM and 0.2% pluronic acid in KH and incubated for 45 min at 37 °C in the dark. Then, cells were washed twice with KH to remove the excess of probe. Tested compounds were incubated 10 min before K+ 70 mM was applied to evoke the increment of cytosolic Ca2+. To normalize Fluo-4 signals, Triton X-100 (5%) and 1 M MnCl2 were applied to register both maximal and minimal fluorescence, respectively. The experiments were analyzed at excitation and emission wavelengths of 485 and 520 nm, respectively, and fluorescence was measured in a fluorescence microplate reader (FLUOstar Optima, BMG, Germany). Data were calculated as a percentage of Fmax - Fmin.
The blocking effect of the depolarization-induced Ca^2+ uptake was investigated in SH-SY5Y neuroblastoma cells stimulated with an extracellular concentration of K^+ 70 mM, which induces the cell Ca^2+ levels elevation by opening voltage-gated Ca^2+ channels (VGCC), monitored with the Ca^2+-sensitive fluorescent dye Fluo-4. Nimodipine was used as positive standard.

[2] = target: T1, Human butyrylcholinesterase (hBuChE) (Homo sapiens, UniProt P06276); experiment: Cholinesterase inhibition assay (Ellman), hBuChE; format: biochemical
T1 construct: Human butyrylcholinesterase (hBuChE) isolated from human plasma was from Vivonics; purchased Vivonics (Bedford, MA, USA); host or cells: human plasma
T1 sequence (P06276 29-602): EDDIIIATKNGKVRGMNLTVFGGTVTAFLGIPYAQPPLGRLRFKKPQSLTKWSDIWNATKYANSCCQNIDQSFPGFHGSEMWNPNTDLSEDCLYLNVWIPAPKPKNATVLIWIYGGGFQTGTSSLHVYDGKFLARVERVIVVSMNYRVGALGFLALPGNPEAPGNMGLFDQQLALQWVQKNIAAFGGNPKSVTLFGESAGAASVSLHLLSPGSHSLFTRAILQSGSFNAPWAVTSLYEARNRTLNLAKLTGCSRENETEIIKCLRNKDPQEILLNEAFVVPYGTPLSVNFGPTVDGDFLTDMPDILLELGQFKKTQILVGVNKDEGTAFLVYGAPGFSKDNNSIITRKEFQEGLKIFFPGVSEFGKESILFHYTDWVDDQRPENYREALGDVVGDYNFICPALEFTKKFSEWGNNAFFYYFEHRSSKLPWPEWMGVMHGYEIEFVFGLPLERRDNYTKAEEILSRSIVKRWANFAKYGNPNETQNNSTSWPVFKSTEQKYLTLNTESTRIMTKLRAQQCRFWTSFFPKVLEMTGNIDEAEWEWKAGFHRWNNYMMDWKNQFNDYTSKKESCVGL
Protocol: Inhibitory activities of the test compounds against the human cholinesterases were measured using the spectrophotometric method described by Ellman et al.^4, as modified for 96-well microplates. 5,5'-Dithiobis-(2-nitrobenzoic acid) (DTNB), acetylthiocholine iodide (ATC), butyrylthiocholine iodide (BTC), and human recombinant acetylcholinesterase (hAChE) were purchased from Sigma-Aldrich. Human butyrylcholinesterase (hBuChE) isolated from human plasma was from Vivonics (Bedford, MA, USA). […] The stock solutions of the test compounds were prepared by dissolving in DMSO to obtain a concentration of 0.0034M. They were further diluted in water to give appropriate concentration in a well. In the first step of Ellman's method 25 µL of the test compound (or mixture DMSO/water in appropriate ratio; i.e. blank samples) was incubated in 0.1 M phosphate buffer (200 µL, pH= 8.0) with DTNB (20 µL; 0.0025M) and the enzyme (20 µL; hAChE or hBuChE) in temperature 36 °C. […] All compounds were tested at screening concentration of 10 µM. Percent of inhibition was calculated from 100-(S/B)×100, where S and B were the respective enzyme activities with and without the test sample, respectively. […] All reactions were performed in triplicate. The IC50 values were calculated using nonlinear regression (GraphPad Prism 5 [GraphPad Software, San Diego California USA 5.00]) by plotting the residual enzyme activities against the applied inhibitor concentration. Tacrine was used as a reference compound.

human H3 receptor = target: T2, human H3 receptor (Homo sapiens, UniProt Q9Y5N1); experiment: H3 Receptor Binding Assay (radioligand binding); settings: membranes from CHO-K1 cells, [3H]-N-α-methylhistamine 1.0 nM; read-out: H3R Ki [nM] ± SEM
T2 construct: expressed in transfected cells; host or cells: CHO-K1
T2 sequence (Q9Y5N1 whole entry): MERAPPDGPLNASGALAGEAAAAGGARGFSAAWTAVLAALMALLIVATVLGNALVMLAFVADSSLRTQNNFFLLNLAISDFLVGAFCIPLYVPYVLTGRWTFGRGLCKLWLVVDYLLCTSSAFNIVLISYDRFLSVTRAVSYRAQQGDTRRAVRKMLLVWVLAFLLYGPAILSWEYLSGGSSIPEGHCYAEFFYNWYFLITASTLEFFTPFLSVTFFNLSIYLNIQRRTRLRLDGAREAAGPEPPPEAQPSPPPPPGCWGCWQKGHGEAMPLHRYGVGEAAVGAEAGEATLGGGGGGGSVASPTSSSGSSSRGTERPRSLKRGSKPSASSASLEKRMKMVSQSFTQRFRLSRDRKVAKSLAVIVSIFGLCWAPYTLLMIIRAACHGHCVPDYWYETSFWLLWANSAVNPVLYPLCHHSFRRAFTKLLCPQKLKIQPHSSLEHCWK
Protocol: 10 mM stock solutions of compounds to be tested were prepared in DMSO.
Radioligand binding was performed using membranes from CHO-K1 cells stably transfected with the human H3 receptor. All assays were carried out in duplicates. 50 µl working solution of the tested compounds, 50 µl [3H]-N-α-methylhistamine (spec. act. 82.9 Ci/mmol, final concentration 1.0 nM) and 150 µl diluted membranes (15 µg protein per well) prepared in assay buffer (50 mM Tris, pH 7.4, 5 mM MgCl2) were transferred to polypropylene 96-well microplate using 96-wells pipetting station Rainin Liquidator (MettlerToledo). […] Microplate was covered with a sealing tape, mixed and incubated for 60 minutes at 27°C. The reaction was terminated by rapid filtration through GF/B filter mate presoaked with 0.5% polyethyleneimine for 30 minutes. Five rapid washes with 300 µl 50 mM Tris buffer (4°C, pH 7.4) were performed using 96-well FilterMate harvester (PerkinElmer, USA). The filter mates were dried at 37°C in forced air fan incubator and then solid scintillator MeltiLex was melted on filter mates at 90°C for 4 minutes. Radioactivity was counted in MicroBeta2 scintillation counter (PerkinElmer). Data were fitted to a one-site curve-fitting equation with Prism 5 (GraphPad Software) and Ki values were estimated from the Cheng-Prusoff equation.

Human recombinant GSK-3β = target: T3, Human recombinant GSK-3β (Homo sapiens, UniProt P49841); experiment: GSK-3β inhibition in vitro assay (Kinase-Glo luminescence); format: biochemical
T3 construct: purchased Millipore (Millipore Iberica S.A.U.)
T3 sequence (P49841 whole entry): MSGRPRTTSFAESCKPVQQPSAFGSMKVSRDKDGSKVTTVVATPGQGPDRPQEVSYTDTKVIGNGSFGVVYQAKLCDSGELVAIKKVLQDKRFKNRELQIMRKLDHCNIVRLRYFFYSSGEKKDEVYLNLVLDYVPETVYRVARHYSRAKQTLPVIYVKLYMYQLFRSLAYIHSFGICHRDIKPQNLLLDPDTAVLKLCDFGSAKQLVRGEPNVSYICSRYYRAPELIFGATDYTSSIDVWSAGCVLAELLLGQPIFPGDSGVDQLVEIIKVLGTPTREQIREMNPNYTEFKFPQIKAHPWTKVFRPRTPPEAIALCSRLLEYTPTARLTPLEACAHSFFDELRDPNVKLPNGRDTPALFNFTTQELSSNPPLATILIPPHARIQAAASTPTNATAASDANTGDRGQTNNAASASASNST
Protocol: Human recombinant GSK-3β, prephosphorylated polypeptide substrate and white 96-well plates were purchased from Millipore (Millipore Iberica S.A.U.). Kinase-Glo Luminescent Kinase Assay was obtained from Promega (Promega Biotech Iberica, SL). Adenosinetriphosphate (ATP) and all other reagents were from Sigma-Aldrich. Assay buffer contained 50 mM 4-(2-hydroxyethyl)-1- piperazineethanesulfonic acid (HEPES) (pH 7.5), 1 mM ethylenediaminetetraacetic acid (EDTA), 1 mM ethylene glycol tetraacetic acid (EGTA), and 15 mM magnesium acetate. The in solution experiments for GSK-3β inhibition analysis were performed by following the method developed by Baki et al.^18. In a typical assay, 10 µL of test compound (dissolved in DMSO at 1 mM concentration and diluted in advance in assay buffer to the desired concentration) and 10 µL (20 ng) of enzyme were added to each well in presence of 20 µL of assay buffer containing GSM substrate and ATP in order to reach a 25 µM and 1 µM final concentration respectively. […] After a 30 min incubation time at 30 °C, the enzymatic reaction was stopped by adding 40 µL of Kinase-Glo reagent. Glow-type luminescence was recorded after 10 min using a VictorX 3 PerkinElmer plate reader. […]. The linear regression parameters were determined and the IC50 extrapolated (GraphPad Prism 4.0, GraphPad Software Inc.).

[3] = target: T4, human recombinant acetylcholinesterase (hAChE) (Homo sapiens, UniProt P22303); experiment: Cholinesterase inhibition assay (Ellman), hAChE; format: biochemical
T4 construct: purchased Sigma-Aldrich
T4 sequence (P22303 32-614): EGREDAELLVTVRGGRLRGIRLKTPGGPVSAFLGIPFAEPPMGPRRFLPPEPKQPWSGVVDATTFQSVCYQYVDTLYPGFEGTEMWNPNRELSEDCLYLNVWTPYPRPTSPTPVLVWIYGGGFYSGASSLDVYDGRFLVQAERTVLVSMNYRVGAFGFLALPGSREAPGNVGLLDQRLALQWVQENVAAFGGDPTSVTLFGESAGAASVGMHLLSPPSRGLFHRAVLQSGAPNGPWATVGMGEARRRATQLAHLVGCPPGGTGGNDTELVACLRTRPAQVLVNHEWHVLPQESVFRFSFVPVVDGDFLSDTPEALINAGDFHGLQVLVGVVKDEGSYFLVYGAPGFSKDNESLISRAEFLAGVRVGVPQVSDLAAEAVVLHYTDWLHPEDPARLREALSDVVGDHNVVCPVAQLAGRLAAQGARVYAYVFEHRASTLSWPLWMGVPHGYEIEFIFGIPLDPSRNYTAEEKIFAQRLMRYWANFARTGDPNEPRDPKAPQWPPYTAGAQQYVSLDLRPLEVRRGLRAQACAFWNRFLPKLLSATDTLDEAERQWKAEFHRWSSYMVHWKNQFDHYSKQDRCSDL
Protocol: Inhibitory activities of the test compounds against the human cholinesterases were measured using the spectrophotometric method described by Ellman et al.^4, as modified for 96-well microplates. 5,5'-Dithiobis-(2-nitrobenzoic acid) (DTNB), acetylthiocholine iodide (ATC), butyrylthiocholine iodide (BTC), and human recombinant acetylcholinesterase (hAChE) were purchased from Sigma-Aldrich. Human butyrylcholinesterase (hBuChE) isolated from human plasma was from Vivonics (Bedford, MA, USA). […] In the first step of Ellman's method 25 µL of the test compound (or mixture DMSO/water in appropriate ratio; i.e. blank samples) was incubated in 0.1 M phosphate buffer (200 µL, pH= 8.0) with DTNB (20 µL; 0.0025M) and the enzyme (20 µL; hAChE or hBuChE) in temperature 36 °C. […] All compounds were tested at screening concentration of 10 µM. Percent of inhibition was calculated from 100-(S/B)×100, where S and B were the respective enzyme activities with and without the test sample, respectively. […] All reactions were performed in triplicate. The IC50 values were calculated using nonlinear regression (GraphPad Prism 5 [GraphPad Software, San Diego California USA 5.00]) by plotting the residual enzyme activities against the applied inhibitor concentration. Tacrine was used as a reference compound.

[4] = read-out: cholinesterases inhibition

Row | Compound | Calcium Channel % inhibition at 10µM [1] | IC50 [2] | Ki (human H3 receptor) | IC50 (Human recombinant GSK-3β; read-out: Gsk3β IC50) | IC50 [3, 4] | IC50 ([3]; read-out: hAChE IC50) | IC50 (Human recombinant GSK-3β)
1 | COCCOC(=O)C1=C(C)NC(C)=C(C(=O)OC(C)C)C1c1cccc([N+](=O)[O-])c1 (stereo not drawn) [Nimodipine, reference compound] | 38% | – | – | – | – | – | –
2 | CCOC(=O)C1=C(C)N(CCC2CCN(Cc3ccccc3)CC2)C(=O)NC1c1ccc(OCCCCN2CCCCC2)cc1 (stereo not drawn) [BIGI-BIH-D2, Ethyl 1-(2-(1-benzylpiperidin-4-yl)ethyl)-6-methyl-2-oxo-4-(4-(4-(piperidin-1-yl)butoxy)phenyl)-1,2,3,4-tetrahydropyrimidine-5-carboxylate] | 13% | 928 ± 32 nM | 0.6 ± 0.08 nM | 106000 nM | 123 nM | 67 ± 1 nM | –
3 | CCOC(=O)C1=C(C)N(CCC2CCN(Cc3ccccc3)CC2)C(=O)NC1c1ccc(OCCCCCCN2CCCCC2)cc1 (stereo not drawn) [BIGI-BIH-D8, Ethyl 1-(2-(1-benzylpiperidin-4-yl)ethyl)-6-methyl-2-oxo-4-(4-((6-(piperidin-1-yl)hexyl)oxy)phenyl)-1,2,3,4-tetrahydropyrimidine-5-carboxylate] | 60% | 1250 ± 46 nM | 0.2 ± 0.02 nM | 68200 nM | – | 86 ± 2 nM | –
4 | CCOC(=O)C1=C(C)N(CCC2CCN(Cc3ccccc3)CC2)C(=O)NC1c1ccc(OCCCCCCN2CCCC2)cc1 (stereo not drawn) [BIGI-BIH-D7, Ethyl 1-(2-(1-benzylpiperidin-4-yl)ethyl)-6-methyl-2-oxo-4-(4-((6-(pyrrolidin-1-yl)hexyl)oxy)phenyl)-1,2,3,4-tetrahydropyrimidine-5-carboxylate] | 47% | 768 ± 13 nM | 0.2 ± 0.04 nM | 30600 nM | – | 89 ± 2 nM | –
5 | CCOC(=O)C1=C(C)N(CCC2CCN(Cc3ccccc3)CC2)C(=O)NC1c1ccc(OCCCCCN2CCCC2)cc1 (stereo not drawn) [BIGI-BIH-D4, Ethyl 1-(2-(1-benzylpiperidin-4-yl)ethyl)-6-methyl-2-oxo-4-(4-((5-(pyrrolidin-1-yl)pentyl)oxy)phenyl)-1,2,3,4-tetrahydropyrimidine-5-carboxylate] | 22% | 1390 ± 66 nM | 0.5 ± 0.05 nM | – | – | 88 ± 2 nM | 60500 nM
6 | CCOC(=O)C1=C(C)N(CCC2CCN(Cc3ccccc3)CC2)C(=O)NC1c1ccc(OCCCCCN2CCCCC2)cc1 (stereo not drawn) [BIGI-BIH-D5, Ethyl 1-(2-(1-benzylpiperidin-4-yl)ethyl)-6-methyl-2-oxo-4-(4-((5-(piperidin-1-yl)pentyl)oxy)phenyl)-1,2,3,4-tetrahydropyrimidine-5-carboxylate] | 34% | 1280 ± 72 nM | 0.3 ± 0.07 nM | 26300 nM | – | 67 ± 1 nM | –
7 | CCOC(=O)C1=C(C)N(CCC2CCN(Cc3ccccc3)CC2)C(=O)NC1c1ccc(OCCCCN2CCCC2)cc1 (stereo not drawn) [BIGI-BIH-D1, Ethyl 1-(2-(1-benzylpiperidin-4-yl)ethyl)-6-methyl-2-oxo-4-(4-(4-(pyrrolidin-1-yl)butoxy)phenyl)-1,2,3,4-tetrahydropyrimidine-5-carboxylate] | 5% | 1720 ± 119 nM | 2.8 ± 0.2 nM | 59800 nM | 63 nM | 63 ± 1 nM | –
8 | CCOC(=O)C1=C(C)N(CCC2CCN(Cc3ccccc3)CC2)C(=O)NC1c1ccc(OCCCCN2CCOCC2)cc1 (stereo not drawn) [BIGI-BIH-D3, Ethyl 1-(2-(1-benzylpiperidin-4-yl)ethyl)-6-methyl-4-(4-(4-morpholinobutoxy)phenyl)-2-oxo-1,2,3,4-tetrahydropyrimidine-5-carboxylate] | 23% | – | 12 ± 0.5 nM | 126000 nM | – | 123 ± 2 nM | –
9 | CCOC(=O)C1=C(C)N(CCC2CCN(Cc3ccccc3)CC2)C(=O)NC1c1ccc(OCCCCCCN2CCOCC2)cc1 (stereo not drawn) [BIGI-BIH-D9, Ethyl 1-(2-(1-benzylpiperidin-4-yl)ethyl)-6-methyl-4-(4-((6-morpholinohexyl)oxy)phenyl)-2-oxo-1,2,3,4-tetrahydropyrimidine-5-carboxylate] | 61% | – | 3 ± 0.4 nM | – | – | 115 ± 2 nM | 38600 nM
10 | CCOC(=O)C1=C(C)N(CCC2CCN(Cc3ccccc3)CC2)C(=O)NC1c1ccc(OCCCCCN2CCOCC2)cc1 (stereo not drawn) [BIGI-BIH-D6, Ethyl 1-(2-(1-benzylpiperidin-4-yl)ethyl)-6-methyl-4-(4-((5-morpholinopentyl)oxy)phenyl)-2-oxo-1,2,3,4-tetrahydropyrimidine-5-carboxylate] | 39% | – | 0.6 ± 0.05 nM | 56600 nM | – | 115 ± 2 nM | –

Reference: patent EP4168396B1, “COMPOUNDS FOR THE TREATMENT OF NEURODEGENERATIVE DISEASES” (Universite De Franche Comte, priority 2020, dated 2021)
